In publication PMC5658662 (Biochemistry, 2017):
Values joined by “and” are separate entries in the source; they are usually repeats but may differ in a detail not shown here. Equal values may be shown once. Read-outs that look alike come from different tables or passages of the source. Marks after values point to notes of the source that are not given here.

Legend:
[1] = target: T1, cytochrome P450 OleT (Jeotgalicoccus sp. ATCC 8456, UniProt E9NSU2); type: biochemical
[2] = target: T1, cytochrome P450 OleT; assay: Guaiacol oxidation to tetraguaiacol by fatty acid-activated OleT; type: biochemical; details: DA-d19 compared with protiated DA as decoy
[3] = target: T1, cytochrome P450 OleT; assay: Stopped flow transient kinetics of OleT:fatty acid complexes with H2O2; type: biochemical
[4] = target: T1, cytochrome P450 OleT; details: in vitro; ref [2]–[4]; cited from earlier work
[5] = target: T1, cytochrome P450 OleT; details: read-out: dissociation constant reported for EA; reported value; ref [2],[13]; cited from earlier work
[6] = target: T1, cytochrome P450 OleT; details: ref [29], cited from earlier work
[7] = target: T1, cytochrome P450 OleT; type: biochemical; details: for % metabolized: 5 μM OleT, 500 μM fatty acid; for % metabolized / product distribution (%) alcohols: slow H2O2 addition; for product distribution (%) 1-alkene: determined from subtraction of product alcohols from the total FA metabolized; for alcohol regiospecificity β: share of alcohols hydroxylated at Cβ; for product distribution (%) alcohols: share of total product; for alcohol regiospecificity α: share of alcohols hydroxylated at Cα
[8] = target: T1, cytochrome P450 OleT; details: for maximal high-spin conversion: UV-vis titration, low- to high-spin conversion
[9] = tested on: cytochrome P450 OleT; type: biochemical, Jeotgalicoccus sp. ATCC 8456
[10] = in the presence of norcarane, 10 mM H2O2, 440 nm, 4 °C
[11] = in the absence of norcarane, 10 mM H2O2, 440 nm, 4 °C
[12] = 5 μM OleT, 200 mM KPi pH 7.5, 200 mM NaCl, absorbance changes at 392 and 417 nm

[2H]C([2H])([2H])C([2H])([2H])C([2H])([2H])C([2H])([2H])C([2H])([2H])C([2H])([2H])C([2H])([2H])C([2H])([2H])C([2H])([2H])C(=O)O [DA-d19, perdeuterated decanoic acid]
product yields for radical clock substrates by decoy fatty acid ([1]; comparison of decoy fatty acids): highest | improvement of guaiacol oxidation rate [2]: approximately 5 fold | Ole-I decay rate constant ([3]; asymptote of RRT1 vs H2O2 plot, 4 °C): ~ 60 s^−1 | Ole-II decay rate constant ([3]; independent of H2O2, 4 °C): ~10 s⁻¹

[2H]C([2H])([2H])C([2H])([2H])C([2H])([2H])C([2H])([2H])C([2H])([2H])C([2H])([2H])C([2H])([2H])C([2H])([2H])C([2H])([2H])C([2H])([2H])C([2H])([2H])C([2H])([2H])C([2H])([2H])C([2H])([2H])C([2H])([2H])C([2H])([2H])C([2H])([2H])C([2H])([2H])C([2H])([2H])C(=O)O [EA-d39, perdeuterated eicosanoic acid]
Ole-II decay rate constant (RRT2) [3, 10]: 10 ± 2 s⁻¹ | Ole-II formation (Ole-I decay) rate constant (RRT1) [3, 10]: 83 ± 3 s⁻¹

CCCCCCCCCCCCCCCCCCCC(=O)O [EA, eicosanoic acid]
chemoselectivity for 1-nonadecene production [4]: ≥ 95% | Kd [5]: < 1 µM | Ole-II decay ([6]; at 5 °C, decarboxylation of EA): ~ 10 s^−1 | substrate 2H KIE (kH/kD) for the decay of Ole-I [6]: > 8

[2H]C([2H])([2H])C([2H])([2H])C([2H])([2H])C([2H])([2H])C([2H])([2H])C([2H])([2H])C([2H])([2H])C([2H])([2H])C([2H])([2H])C([2H])([2H])C([2H])([2H])C(=O)O [LA-d23]
Ole-II decay rate constant (RRT2) [3, 11]: 10.4 ± 0.5 s⁻¹ | Ole-II formation (RRT1) [3, 11]: 105 ± 10 s⁻¹ | Ole-II decay rate constant (RRT2) [3, 10]: 12.5 ± 0.6 s⁻¹ | Ole-II formation (Ole-I decay) rate constant (RRT1) [3, 10]: 66 ± 3 s⁻¹

CCCCCCCCCC(=O)O [C10:0, decanoic acid]
% metabolized [7]: 100% | product distribution (%) 1-alkene [7]: 90.0 ± 0.8 ^b % | alcohol regiospecificity β [7]: 100% β | product distribution (%) alcohols [7]: 10.0 ± 0.8% | Kd [8]: 25 ± 8 µM | maximal high-spin conversion [8]: 36%

CCCCCCCC(=O)O [C8:0]
% metabolized [7]: 100% | product distribution (%) 1-alkene [7]: 88.4 ± 0.4 ^b % | alcohol regiospecificity α [7]: 11.3 ± 2.3% α | alcohol regiospecificity β [7]: 89.0 ± 5.3% β | product distribution (%) alcohols [7]: 11.6 ± 0.8% | Kd [8, 12]: 134 ± 11 µM | maximal high-spin conversion [8]: 25%

CC1CC1c1ccccc1 (centres unmarked) [methylcyclopropane]
product yield (%) ring-closed ([1]; in the presence of DA-d19): 41.9% and 40.1% | product yield (%) ring-opened ([1]; in the presence of DA-d19): 58.1% and 59.9% | radical lifetime ([1]; per trial, from product ratio and krearr = 3 × 10^11 s−1): 2.4 ps

CCCCCCCCCCCC(=O)O [C12:0, lauric acid]
product distribution (%) 1-alkene ([9]; determined from direct quantitation): 61.4 ± 7.6 ^a % | product distribution (%) alcohols ([9]; slow H2O2 addition, share of total product): 38.6 ± 7.6% | % metabolized [7]: 98.3 ± 0.2% | alcohol regiospecificity α [7]: 7.0 ± 1.3% α | alcohol regiospecificity α ([7]; listed as LA): 7% | alcohol regiospecificity β [7]: 71.5 ± 15.5% β | alcohol regiospecificity γ ([7]; share of alcohols hydroxylated at Cγ): 21.5 ± 4.4% γ | Kd [8]: 2.8 ± 0.4 µM | maximal high-spin conversion [8]: 61%

C1CCC2CC2C1 (centres unmarked) [norcarane, bicyclo[4.1.0]heptane]
radical lifetime ([1]; from averaged ratio of rearranged products to norcaranol (G + E)): ~ 35 ps | product yield (%) F ([1]; in the presence of DA-d19): 1.9% | product yield (%) I ([1]; in the presence of DA-d19): 0.55% | product yield (%) C ([1]; in the presence of DA-d19, 4-hydroxy-2-norcarene): 3.8% | product yield (%) cation ([1]; in the presence of DA-d19, cation-rearranged product 3-cycloheptenol (A)): 2.6% and 1.4% | product yield (%) E ([1]; in the presence of DA-d19, endo-2-norcaranol): 51.5% and 47.6% | product yield (%) G ([1]; in the presence of DA-d19, exo-2-norcaranol): 38.9% and 33.4% | product yield (%) radical ([1]; in the presence of DA-d19, radical-rearranged product 3-hydroxymethylcyclohexene (D)): 0.75% and 0.47% | radical lifetime ([1]; per trial, from product ratio and krearr = 2 × 10^8 s−1): 42 ps and 29 ps

CCCCCC(=O)O [C6:0]
Kd [8, 12]: 164 ± 15 µM | maximal high-spin conversion [8]: 19%
